Results as given in ChEMBL document CHEMBL4483862, “Open-source discovery of chemical leads for next-generation chemoprotective antimalarials” (2018).

Tested on: Plasmodium berghei
Assay: Luciferase/luciferin-expressing antifolate-resistant parasites were used to infect a culture of HepG2 cells that were pre-incubated with compounds. Infected hepatocytes emit light due to the luciferase reaction. Assay results are presented as the percent inhibition of light emission compared to control. […]
Format: functional
Conditions: sporozoite; for IC90: read-out: LUCIFERASE INFECTION ASSAY - IC90
[1] = read-out: LUCIFERASE INFECTION ASSAY - IC50

| SMILES | IC50 [1] | IC90 | other results |
| --- | --- | --- | --- |
| Cc1nc2c3c(C)c(C)n(C4CCCCCC4)c3ncn2n1 | > 11.1 µM | > 11.1 µM |  |
| CC(C)(C)NS(=O)(=O)c1cccc2c(N)cccc12 |  | 5.45 µM | IC50 (FFLUC_HILL_SLOPE 12.8, FFLUC_R_SQUARED 0.416, HEPG2TOX_HILL_SLOPE 12.3, HEPG2TOX_R_SQUARED 0.393, PBLUC_HILL_SLOPE 11.3, PBLUC_R_SQUARED 0.345, read-out: LUCIFERASE INFECTION ASSAY - IC50): 4.49 µM |
| CC(=O)Nc1ccc(C2NC(=O)NC(c3ccccc3)=C2c2nc3ccccc3s2)cc1 (stereo not given) | > 10 µM | > 10 µM |  |
| COc1ccc(CO)c(Cl)c1OC | > 16.3 µM | > 16.3 µM |  |
| Cc1cnc(C(=O)OCC(=O)NCCc2ccccc2)cn1 | > 10 µM | > 10 µM |  |
| COC(=O)C1=C2N(C)c3ccccc3N2C(Nc2ccc(C)cc2)=NC1C(F)(F)F.Cc1ccc(C)cc1 (stereo not given) |  | > 10 µM | IC50 (FFLUC_HILL_SLOPE 2.2, FFLUC_R_SQUARED 0.697, HEPG2TOX_HILL_SLOPE 5.36, HEPG2TOX_R_SQUARED 0.5, PBLUC_HILL_SLOPE 4.61, PBLUC_R_SQUARED 0.0573, read-out: LUCIFERASE INFECTION ASSAY - IC50): 7.42 µM |
| CCCCc1ccc(NC(=O)c2cc(OC)c(OC)c(OC)c2)cc1 | > 9.61 µM | > 9.61 µM |  |
| Cc1ccc(-c2cnn3c(NCCN(C)C)cc(C)nc23)cc1 |  | 10.6 µM | IC50 (PBLUC_HILL_SLOPE 1.98, PBLUC_R_SQUARED 0.569, read-out: LUCIFERASE INFECTION ASSAY - IC50): 3.5 µM |
| COc1ccc2cc(C(C)C(=O)N3CCN(S(=O)(=O)/C=C/c4ccccc4)CC3)ccc2c1 (stereo not given) | > 10 µM | > 10 µM |  |
| CNC(=O)c1ccc(CN(Cc2ccc(SC)cc2)Cc2ccco2)cc1 |  | 0.736 µM | IC50 (PBLUC_HILL_SLOPE 13.4, PBLUC_R_SQUARED 0.501, read-out: LUCIFERASE INFECTION ASSAY - IC50): 0.624 µM |
| Cn1ccnc1Sc1ncnc2ccsc12 |  | 9.45 µM | IC50 (PBLUC_HILL_SLOPE 4.08, PBLUC_R_SQUARED 0.748, read-out: LUCIFERASE INFECTION ASSAY - IC50): 5.51 µM |
| c1ccc(CN2CCc3nc(NCc4ccc(Oc5ccccc5)cc4)ncc3C2)cc1 | > 7.81 µM | > 7.81 µM |  |
| CNC(=O)c1ccc(CN(C(=O)/C=C/c2ccc(-c3ccccc3F)s2)C2CC2)cc1 |  | 6.45 µM | IC50 (PBLUC_HILL_SLOPE 95.6, PBLUC_R_SQUARED 0.262, read-out: LUCIFERASE INFECTION ASSAY - IC50): 6.3 µM |
| O=C1NCC(COC(=O)c2ccc3c4c(cccc24)CC3)O1 (stereo not given) |  | 3.64 µM | IC50 (HEPG2TOX_HILL_SLOPE 2.53, HEPG2TOX_R_SQUARED 0.949, PBLUC_HILL_SLOPE 23.6, PBLUC_R_SQUARED 0.351, read-out: LUCIFERASE INFECTION ASSAY - IC50): 3.32 µM |
| CN1CCN(c2ccc(-c3cn4c(-c5ccc(F)c(Cl)c5)cnc4cn3)cn2)CC1 | > 7.8 µM | > 7.8 µM |  |
| O=C1COc2cc(C(=O)Oc3ccc4ccccc4c3Br)ccc2N1 | > 10 µM | > 10 µM |  |
| CC(C)N1CCC(NC(=O)c2ccc(COc3ccc4ccccc4c3)o2)CC1 |  | 9.06 µM | IC50 (PBLUC_HILL_SLOPE 1.64, PBLUC_R_SQUARED 0.625, read-out: LUCIFERASE INFECTION ASSAY - IC50): 2.37 µM |
| CCOC(=O)c1c(N2C(=O)C=CC2=O)sc2c1CCCC2 |  | > 10.8 µM | IC50 (FFLUC_HILL_SLOPE 2.83, FFLUC_R_SQUARED 0.0392, read-out: LUCIFERASE INFECTION ASSAY - IC50): > 10.8 µM |
| CN(C)CCCNc1nc2sc3c(c2c(=O)n1-c1ccccc1)CCCCC3 | > 8.32 µM | > 8.32 µM |  |
| CS(=O)(=O)c1ccc(C(=O)OC(C(=O)c2c[nH]c3ccccc23)c2ccccc2)cc1[N+](=O)[O-] (stereo not given) |  | 7.61 µM | IC50 (HEPG2TOX_HILL_SLOPE 12.6, HEPG2TOX_R_SQUARED 0.833, PBLUC_HILL_SLOPE 19.7, 53.6, PBLUC_R_SQUARED 0.857, 0.714, read-out: LUCIFERASE INFECTION ASSAY - IC50): 7.02 µM |
| O=C1Nc2ccc(Cl)cc2/C1=C/c1ccc(-c2ccccc2)cc1 |  | > 10 µM | IC50 (FFLUC_HILL_SLOPE 2.74, FFLUC_R_SQUARED 0.354, PBLUC_HILL_SLOPE 5.72, PBLUC_R_SQUARED 0.824, read-out: LUCIFERASE INFECTION ASSAY - IC50): 8.45 µM |
| Cc1cc(N2CCN(Cc3nc(=O)c4cc(Cl)ccc4[nH]3)CC2)nc(C(C)C)n1 |  | > 10 µM | IC50 (HEPG2TOX_HILL_SLOPE 8.69, HEPG2TOX_R_SQUARED 0.562, PBLUC_HILL_SLOPE 3.21, PBLUC_R_SQUARED 0.576, read-out: LUCIFERASE INFECTION ASSAY - IC50): 5.79 µM |
| COc1ccc(-c2ccnc3n[nH]c(-c4ccncc4)c23)cc1 |  | > 10 µM | IC50 (HEPG2TOX_HILL_SLOPE 3.34, HEPG2TOX_R_SQUARED 0.878, PBLUC_HILL_SLOPE 1.93, PBLUC_R_SQUARED 0.439, read-out: LUCIFERASE INFECTION ASSAY - IC50): 3.22 µM |

| SMILES | IC50 [1] | IC90 | other results |
| --- | --- | --- | --- |
| CC(C)[C@H](NC(=O)c1ccc(Cl)cc1)C(=O)OCC(=O)NCCc1ccc(S(N)(=O)=O)cc1 |  | > 10 µM | IC50 (HEPG2TOX_HILL_SLOPE 0.118, HEPG2TOX_R_SQUARED 0.186, PBLUC_HILL_SLOPE 0.264, PBLUC_R_SQUARED 0.0178, read-out: LUCIFERASE INFECTION ASSAY - IC50): > 10 µM |
| O=C(CN1CCC(Nc2ncnc3cc(Cl)ccc23)CC1)Nc1ccccc1 |  | 5.83 µM | IC50 (HEPG2TOX_HILL_SLOPE 1.03, HEPG2TOX_R_SQUARED 0.872, PBLUC_HILL_SLOPE 1.97, PBLUC_R_SQUARED 0.801, read-out: LUCIFERASE INFECTION ASSAY - IC50): 1.91 µM |
| CCCNC(=O)c1c(NC(=O)c2cccc(C(F)(F)F)c2)nc2ccccn12 | 0.399 µM | 0.786 µM |  |
| Cc1c(C2=CCCCC2)c2ccccn2c1C(=O)c1cc2c(C)nn(-c3ccccc3)c2s1 | > 10 µM | > 10 µM |  |
| Cc1ccc(NC(=O)/C=C/c2c(C)nn(CC(C)C)c2Cl)cc1 |  | > 10 µM | IC50 (HEPG2TOX_HILL_SLOPE 7.42, HEPG2TOX_R_SQUARED 0.403, read-out: LUCIFERASE INFECTION ASSAY - IC50): > 10 µM |
| O=C(Nc1cccc(F)c1)Nc1ccc2nc(-c3cccnc3)nn2c1 | > 10 µM | > 10 µM |  |
| CC(C)(C)c1ccc(C(=O)Nc2nonc2-c2ccc(F)cc2)cc1 | > 9.72 µM | > 9.72 µM |  |
| CCCCCCn1c(SCC(=O)Nc2sc(C(=O)N(CC)CC)c(C)c2C(=O)OCC)nc2ccccc21 | > 10 µM | > 10 µM |  |
| COCC(C)n1c(C)cc(C(=O)COC(=O)c2cccc(C)c2C)c1C (stereo not given) |  | 6.95 µM | IC50 (HEPG2TOX_HILL_SLOPE 0.0806, HEPG2TOX_R_SQUARED 0.082, PBLUC_HILL_SLOPE 4.05, PBLUC_R_SQUARED 0.617, read-out: LUCIFERASE INFECTION ASSAY - IC50): 4.04 µM |
| Cc1nc(SCc2cccc(S(=O)(=O)N(C)C)c2)c2ccccc2n1 |  | > 10 µM | IC50 (HEPG2TOX_HILL_SLOPE 2.7, HEPG2TOX_R_SQUARED 0.556, read-out: LUCIFERASE INFECTION ASSAY - IC50): > 10 µM |
| N=C(NS(=O)(=O)c1cc(C(F)(F)F)cc(C(F)(F)F)c1)c1ccc(Cl)cc1 |  | > 7.66 µM | IC50 (HEPG2TOX_HILL_SLOPE 0.0636, HEPG2TOX_R_SQUARED 0.0519, read-out: LUCIFERASE INFECTION ASSAY - IC50): > 7.66 µM |
| C[S+]([O-])c1ccc(C(F)(F)F)cc1[N+](=O)[O-] (stereo not given) |  | > 13 µM | IC50 (HEPG2TOX_HILL_SLOPE 9.53, HEPG2TOX_R_SQUARED 0.815, PBLUC_HILL_SLOPE 1.65, PBLUC_R_SQUARED 0.298, read-out: LUCIFERASE INFECTION ASSAY - IC50): 11.1 µM |
| COc1ccc(CCN2C(=O)N(C(C)C)C(=O)C23CCN(Cc2cc4ccccc4[nH]2)CC3)cc1 |  | 6.63 µM | IC50 (HEPG2TOX_HILL_SLOPE 8.55, HEPG2TOX_R_SQUARED 0.942, PBLUC_HILL_SLOPE 15.5, PBLUC_R_SQUARED 0.628, read-out: LUCIFERASE INFECTION ASSAY - IC50): 5.75 µM |
| COc1ccc(S(=O)(=O)N(C)C)cc1NC(=O)CSc1cc(C)c2ccccc2n1 | > 10 µM | > 10 µM |  |
| COc1cc(/C=C/C(=O)OCC(=O)Nc2cc(Cl)cc(Cl)c2)cc(OC)c1OC | > 10 µM | > 10 µM |  |
| CC1CN(c2nc(N)c3c(N)nc4c(c3c2C#N)CC(=O)N4C2CCCC2)CC(C)O1 (stereo not given) | > 10 µM | > 10 µM |  |
| CN(C)c1ccc(-c2cnn3c(Nc4ccc(Oc5ccccc5)cc4)ccnc23)cc1 |  | > 7.83 µM | IC50 (PBLUC_HILL_SLOPE 2.36, PBLUC_R_SQUARED 0.164, read-out: LUCIFERASE INFECTION ASSAY - IC50): 6.65 µM |
| Cc1noc(C)c1NC(=O)Nc1cc(C(F)(F)F)cc(C(F)(F)F)c1 |  | > 8.99 µM | IC50 (FFLUC_HILL_SLOPE 4.67, FFLUC_R_SQUARED 0.129, HEPG2TOX_HILL_SLOPE 8.81, HEPG2TOX_R_SQUARED 0.655, PBLUC_HILL_SLOPE 1.82, PBLUC_R_SQUARED 0.142, read-out: LUCIFERASE INFECTION ASSAY - IC50): 4.81 µM |
| Cc1cc2ccccn2c1C(=O)c1cc2c(C)nn(-c3ccccc3)c2s1 | > 10 µM | > 10 µM |  |
| O=C(Nn1cnc2ccccc21)c1ccccc1Nc1ccc(SC(F)F)cc1 |  | > 10 µM | IC50 (PBLUC_HILL_SLOPE 11.6, PBLUC_R_SQUARED 0.0782, read-out: LUCIFERASE INFECTION ASSAY - IC50): 8.68 µM |
| COc1ccc(C(N)=O)c(OCCOc2ccc(C(C)C)c(C)c2)c1 |  | > 10 µM | IC50 (PBLUC_HILL_SLOPE 1.7, PBLUC_R_SQUARED 0.184, read-out: LUCIFERASE INFECTION ASSAY - IC50): 4.61 µM |
| FC(F)(F)c1ccnc(N2CCN(C(c3ccccc3)c3ccccc3)CC2)c1 |  | > 8.3 µM | IC50 (PBLUC_HILL_SLOPE 1.54, PBLUC_R_SQUARED 0.0984, read-out: LUCIFERASE INFECTION ASSAY - IC50): > 8.3 µM |
